Results from patent publication US9382276B2, “Water-soluble O-carbonyl phosphoramidate prodrugs for therapeutic administration” (MicuRx Pharmaceuticals, Inc., priority 2014, dated 2016).
In brackets after ≈: the same amount, converted by molar mass.

How the values were obtained:
[1] = system: Staphylococcus aureus strain SAU1018; assay: mouse peritonitis infection model (survival, ED50); format: in vivo; conditions: parent drug control in same test, in 20% aqueous beta-hydroxypropylcyclodextrin (HPCD) formulation, read-out: ED50 (effective dose for survival of 50% of animals)
in vivo = conditions: rat, iv, 10 mg/kg
[2] = pH range of about 3-9
physchem = conditions: water or conventional aqueous solutions, thermodynamic from solid

## O=C1C=CN(c2c(F)cc(N3C[C@H](CNc4ccon4)OC3=O)c(F)c2F)CC1 [MRX-I]
[1]
  ED50: 10 mg/kg
In vivo
  AUC: ~25400 ng·h/mL
[2]
  pH dependence of solubility in water: virtually pH-independent
physchem
  solubility: ~250 µg/mL (≈ 612 µM)
